Measured values taken from patent publication US20070149446A1, “Tamandarin analogs and fragments thereof and methods of making and using” (The Trustees of the University of Pennsylvania Center for …, priority 2003, published 2007).
Where two headings read alike, the source gives them in different places. Starred links: 1 amine or outer side, 2 acyl side, 3 side chain; linkers in the order of their positions; H or OH if unused. Positions of bridges follow the written chain, without caps; N, C: chain ends. Non-standard residues stand in square brackets, D forms with d. Residues, ends and D or L forms follow the SMILES beside them. Hexanoyl(3S-OH,4R-NH2,5-Me) = CC(C)[C@@H](N[*:1])[C@@H](O)CC(=O)[*:2]; NMeY = CN[C@@H](Cc1ccc(O)cc1)C(=O)O; NMeF = CN[C@@H](Cc1ccccc1)C(=O)O; dNMeL = CN[C@H](CC(C)C)C(=O)O; Hiv = CC(C)[C@H](O)C(=O)O; Lac = C[C@H](O)C(=O)O

Legend:
[1] = amide bond, 25.0 °C, 17.0 h
A549 = assay: SRB colorimetric cell growth inhibition assay, A549; settings: SRB, 48 hours exposure; for TGI / CC50: A549 cells; for TGI: total growth inhibition; for GI50: A549 lung carcinoma cells; for CC50: read-out: LC50, cell killing
Description: (§1) This form of assay employs 96 well cell culture microplates of […] diameter (Faircloth, 1988; Mosmann, 1983). Most of the cell lines are obtained from American Type Culture Collection (ATCC) derived from different human cancer types.
(§2) Cells are maintained in RPMI 1640 10% FBS, supplemented with 0.1 g/l penicillin and 0.1 g/l streptomycin sulfate and then incubated at 37° C., 5% CO2 and 98% humidity. For the experiments, cells were harvested from subconfluent cultures using trypsin and resuspended in fresh medium before plating.
(§3) Cells are seeded in 96 well microtiter plates, at 5×10^3 cells per well in aliquots of 195 μl medium, and they are allowed to attach to the plate surface by growing in drug free medium for 18 hours. Afterward, samples are added in aliquots of 5 μl in a ranging from 10 to 10-8 μg/ml, dissolved in DMSO/EtOH/PBS (0.5:0.5:99). After 48 hours exposure, the antitumor effect are measured by the SRB methodology: cells are fixed by adding 50 μl of cold 50% (wt/vol) trichloroacetic acid (TCA) and incubated for 60 minutes at 4° C.
(§4) Plates are washed with deionised water and dried. One hundred μl of SRB solution (0.4% wt/vol in 1% acetic acid) is added to each microtiter well and incubated for 10 minutes at room temperature. Unbound SRB is removed by washing with 1% acetic acid. Plates are air dried and bound stain is solubilized with Tris buffer. Optical densities are read on a automated spectrophotometric plate reader at a single wavelength of 490 nm.
(§5) The values for mean+/−SD of data from triplicate wells are calculated.
(§6) Some parameters for cellular responses can be calculated: GI=growth inhibition, TGI=total growth inhibition (cytostatic effect) and LC=cell killing (cytotoxic effect).

LN-caP = assay: SRB colorimetric cell growth inhibition assay, LN-caP; settings: SRB, 48 hours exposure; for TGI / CC50: LN-caP cells; for TGI: total growth inhibition; for GI50: LN-caP prostate adenocarcinoma cells; for CC50: read-out: LC50, cell killing
Description: as §1, §2, §3, §4, §5, §6

K562 = assay: SRB colorimetric cell growth inhibition assay, K562; settings: K562 cells, SRB, 48 hours exposure; for TGI: total growth inhibition; for CC50: read-out: LC50, cell killing
Description: as §1, §2, §3, §4, §5, §6

IGROV-ET = assay: SRB colorimetric cell growth inhibition assay, IGROV-ET; settings: SRB, 48 hours exposure; for GI50: IGROV-ET (ET-743 resistant) ovary cells; for TGI / CC50: IGROV-ET cells; for TGI: total growth inhibition; for CC50: read-out: LC50, cell killing
Description: as §1, §2, §3, §4, §5, §6

SK-BR3 = assay: SRB colorimetric cell growth inhibition assay, SK-BR3; settings: SRB, 48 hours exposure; for GI50: SK-BR3 breast adenocarcinoma cells; for TGI / CC50: SK-BR3 cells; for TGI: total growth inhibition; for CC50: read-out: LC50, cell killing
Description: as §1, §2, §3, §4, §5, §6

LOVO-DOX = assay: SRB colorimetric cell growth inhibition assay, LOVO-DOX; settings: SRB, 48 hours exposure; for GI50: LOVO-DOX (MDR) colon adenocarcinoma cells; for TGI / CC50: LOVO-DOX cells; for TGI: total growth inhibition; for CC50: read-out: LC50, cell killing
Description: as §1, §2, §3, §4, §5, §6

LOVO = assay: SRB colorimetric cell growth inhibition assay, LOVO; settings: SRB, 48 hours exposure; for TGI / CC50: LOVO cells; for TGI: total growth inhibition; for GI50: LOVO colon adenocarcinoma cells; for CC50: read-out: LC50, cell killing
Description: as §1, §2, §3, §4, §5, §6

HELA = assay: SRB colorimetric cell growth inhibition assay, HELA; settings: SRB, 48 hours exposure; for TGI / CC50: HELA cells; for TGI: total growth inhibition; for GI50: HELA cervix carcinoma cells; for CC50: read-out: LC50, cell killing
Description: as §1, §2, §3, §4, §5, §6

IGROV = assay: SRB colorimetric cell growth inhibition assay, IGROV; settings: SRB, 48 hours exposure; for TGI / CC50: IGROV cells; for TGI: total growth inhibition; for GI50: IGROV ovary adenocarcinoma cells; for CC50: read-out: LC50, cell killing
Description: as §1, §2, §3, §4, §5, §6

HT29 = assay: SRB colorimetric cell growth inhibition assay, HT29; settings: SRB, 48 hours exposure; for TGI / CC50: HT29 cells; for TGI: total growth inhibition; for GI50: HT29 colon adenocarcinoma cells; for CC50: read-out: LC50, cell killing
Description: as §1, §2, §3, §4, §5, §6

HELA-APL = assay: SRB colorimetric cell growth inhibition assay, HELA-APL; settings: SRB, 48 hours exposure; for GI50: HELA-APL (aplidine resistant) cervix cells; for TGI / CC50: HELA-APL cells; for TGI: total growth inhibition; for CC50: read-out: LC50, cell killing
Description: as §1, §2, §3, §4, §5, §6

SK-MEL-28 = assay: SRB colorimetric cell growth inhibition assay, SK-MEL-28; settings: SRB, 48 hours exposure; for GI50: SK-MEL-28 (MEL-28) melanoma cells; for TGI / CC50: SK-MEL-28 cells; for TGI: total growth inhibition; for CC50: read-out: LC50, cell killing
Description: as §1, §2, §3, §4, §5, §6

DU145 = assay: SRB colorimetric cell growth inhibition assay, DU145; settings: SRB, 48 hours exposure; for TGI / CC50: DU145 cells; for TGI: total growth inhibition; for GI50: DU145 prostate carcinoma cells; for CC50: read-out: LC50, cell killing
Description: as §1, §2, §3, §4, §5, §6

PANC1 = assay: SRB colorimetric cell growth inhibition assay, PANC1; settings: SRB, 48 hours exposure; for TGI / CC50: PANC1 cells; for TGI: total growth inhibition; for GI50: PANC1 pancreatic carcinoma cells; for CC50: read-out: LC50, cell killing
Description: as §1, §2, §3, §4, §5, §6

Molecule COc1ccc(C[C@H]2C(=O)O[C@H](C)[C@H](NC(=O)OC(C)(C)C)C(=O)N[C@H](C(C)C)[C@@H](O[Si](C(C)C)(C(C)C)C(C)C)CC(=O)O[C@@H](C(C)C)C(=O)N[C@@H](CC(C)C)C(=O)N3CCC[C@H]3C(=O)N2C)cc1 has a ring closure, yield of all isomers ([1]; from COc1ccc(C[C@@H](C(=O)O[C@H](C)[C@H](NC(=O)OC(C)(C)C)C(=O)O)N(C)C(=O)[C@@H]2CCCN2C(=O)[C@H](CC(C)C)NC(=O)[C@@H](OC(=O)C[C@H](O[Si](C(C)C)(C(C)C)C(C)C)[C@H](N)C(C)C)C(C)C)cc1, HATU/DIEA, DMF, 10.0 mM, 3 steps) of 19%.

With COc1ccc(C[C@H]2C(=O)O[C@H](C)[C@H](NC(=O)OC(C)(C)C)C(=O)N[C@H](C(C)C)[C@@H](O)CC(=O)O[C@@H](C(C)C)C(=O)N[C@@H](CC(C)C)C(=O)N[C@@H](C)C(=O)N2C)cc1 the ring closure, yield of all isomers ([1]; from CN[C@@H](Cc1ccc(OC)cc1)C(=O)O[C@H](C)[C@H](NC(=O)OC(C)(C)C)C(=O)N[C@H](C(C)C)[C@@H](O)CC(=O)O[C@H](C(=O)N[C@@H](CC(C)C)C(=O)N[C@@H](C)C(=O)O)C(C)C, HATU/NMM, CH3CN, 4.6 mM) was 60%.

Work on COc1ccc(C[C@H]2C(=O)O[C@H](C)[C@H](NC(=O)[C@@H](CC(C)C)N(C)C(=O)[C@@H]3CCCN3C(=O)[C@H](C)O)C(=O)N[C@H](C(C)C)[C@@H](O)CC(=O)O[C@@H](C(C)C)C(=O)N[C@@H](CC(C)C)C(=O)N3CCC[C@H]3C(=O)N2C)cc1 [tamandarin B, Tamandarin B, reference compound] (H-[Lac]P[dNMeL]T[Hexanoyl(3S-OH,4R-NH2,5-Me)][Hiv]LP[NMeY](Me); ester 4-C) yielded a TGI (A549) of 4.01E−08 Molar, a GI50 (A549) of 7.62 nM and a CC50 (A549) of 766 nM. The TGI (LN-caP) was 2.13E−08 Molar, the GI50 (LN-caP) was 5.84 nM and the CC50 (LN-caP) was 142 nM. For the same molecule, the GI50 (K562) was 8.47 nM, the TGI (K562) was 2.63E−08 Molar and the CC50 (K562) was 78.2 nM. The GI50 (IGROV-ET) was 173 nM, the TGI (IGROV-ET) was 2.04E−06 Molar and the CC50 (IGROV-ET) was 9590 nM. For the same molecule, the GI50 (SK-BR3) was 5.44 nM, the TGI (SK-BR3) was 2.49E−08 Molar and the CC50 (SK-BR3) was 236 nM. It also gave a GI50 (LOVO-DOX) of 1250 nM, a TGI (LOVO-DOX) of 9.59E−06 Molar and a CC50 (LOVO-DOX) of 9590 nM. The TGI (LOVO) was 1.61E−07 Molar, the GI50 (LOVO) was 30.5 nM and the CC50 (LOVO) was 9590 nM. For the same molecule, the TGI (HELA) was 1.76E−08 Molar, the GI50 (HELA) was 3.9 nM and the CC50 (HELA) was 120 nM. It also gave a TGI (IGROV) of 2.91E−08 Molar, a GI50 (IGROV) of 7.31 nM and a CC50 (IGROV) of 133 nM. For the same molecule, the TGI (HT29) was 4.32E−08 Molar, the GI50 (HT29) was 6.32 nM and the CC50 (HT29) was 9590 nM. The GI50 (HELA-APL) was 59.7 nM, the TGI (HELA-APL) was 1.16E−06 Molar and the CC50 (HELA-APL) was 9590 nM. For the same molecule, the GI50 (SK-MEL-28) was 3.03 nM, the TGI (SK-MEL-28) was 1.19E−08 Molar and the CC50 (SK-MEL-28) was 119 nM. For the same molecule, the TGI (DU145) was 2.41E−08 Molar, the GI50 (DU145) was 7.08 nM and the CC50 (DU145) was 79.7 nM. For the same molecule, the TGI (PANC1) was 5.69E−08 Molar, the GI50 (PANC1) was 14 nM and the CC50 (PANC1) was 413 nM.

For CC(C)C[C@@H]1NC(=O)[C@H](C(C)C)OC(=O)C[C@H](O)[C@@H](C(C)C)NC(=O)[C@@H](NC(=O)[C@@H](CC(C)C)N(C)C(=O)[C@@H]2CCCN2C(=O)[C@H](C)O)[C@@H](C)OC(=O)[C@H](Cc2ccccc2)N(C)C(=O)[C@@H]2CCCN2C1=O [Phe^5 tamandarin B, [N-MePhe^5]-Tamandarin B] (H-[Lac]P[dNMeL]T[Hexanoyl(3S-OH,4R-NH2,5-Me)][Hiv]LP[NMeF]; ester 4-C), the TGI (A549) was 3.90E−08 Molar, the GI50 (A549) was 4.56 nM and the CC50 (A549) was 935 nM. For the same molecule, the TGI (LN-caP) was 8.32E−09 Molar, the GI50 (LN-caP) was 1.52 nM and the CC50 (LN-caP) was 101 nM. The GI50 (K562) was 23.2 nM, the TGI (K562) was 9.88E−07 Molar and the CC50 (K562) was 9880 nM. The GI50 (IGROV-ET) was 215 nM, the TGI (IGROV-ET) was 7.88E−07 Molar and the CC50 (IGROV-ET) was 6350 nM. For the same molecule, the GI50 (SK-BR3) was 0.658 nM, the TGI (SK-BR3) was 4.49E−09 Molar and the CC50 (SK-BR3) was 312 nM. For the same molecule, the GI50 (LOVO-DOX) was 358 nM, the TGI (LOVO-DOX) was 1.97E−06 Molar and the CC50 (LOVO-DOX) was 9880 nM. The TGI (LOVO) was 8.81E−08 Molar, the GI50 (LOVO) was 26.1 nM and the CC50 (LOVO) was 5220 nM. It also gave a TGI (HELA) of 4.61E−09 Molar, a GI50 (HELA) of 1.17 nM and a CC50 (HELA) of 55.5 nM. The TGI (IGROV) was 1.28E−08 Molar, the GI50 (IGROV) was 2.49 nM and the CC50 (IGROV) was 124 nM. For the same molecule, the TGI (HT29) was 7.89E−08 Molar, the GI50 (HT29) was 4.77 nM and the CC50 (HT29) was 9880 nM. The GI50 (HELA-APL) was 44.5 nM, the TGI (HELA-APL) was 4.23E−07 Molar and the CC50 (HELA-APL) was 9880 nM. For the same molecule, the GI50 (SK-MEL-28) was 2.74 nM, the TGI (SK-MEL-28) was 1.88E−08 Molar and the CC50 (SK-MEL-28) was 205 nM. The TGI (DU145) was 1.02E−08 Molar, the GI50 (DU145) was 2.37 nM and the CC50 (DU145) was 268 nM. The TGI (PANC1) was 3.28E−08 Molar, the GI50 (PANC1) was 3.81 nM and the CC50 (PANC1) was 9880 nM.
